Measured values from patent US7517905B2, “Substituted azabicyclo hexane derivatives as muscarinic receptor antagonists” (Ranbaxy Laboratories Limited, priority 2003, dated 2009).

Experiments:
M3 muscarinic receptor = target: T1, M3 muscarinic receptor (Rattus norvegicus, UniProt P08483); assay: Radioligand binding assay, [3H]-N-methyl scopolamine, rat submandibular gland membranes; details: [3H]NMS displacement, Ki by Cheng & Prusoff; for Ki: read-out: Receptor Binding Assay M3 pKi (converted)
T1 construct: Submandibular glands and heart were isolated and placed in ice cold homogenizing buffer; from tissue; host or cells: rat submandibular gland membrane homogenate
Procedure: (§1) Membrane preparation: Submandibular glands and heart were isolated and placed in ice cold homogenizing buffer (HEPES 20 mM, 10 mM EDTA, and pH 7.4) immediately after sacrifice. The tissues were homogenized in 10 volumes of homogenizing buffer and the homogenate was filtered through two layers of wet gauze and filtrate was centrifuged at 500 g for 10 min. The supernatant was subsequently centrifuged at 40.000 g for 20 min. The pallet thus obtained was resuspended in same volume of assay buffer (HEPES 20 mM, EDTA 5 mM, pH 7.4) and were stored at −70° C. until the time of assay.
(§2) Ligand binding assay: The compounds were dissolved and diluted in dimethylsulfoxide. The membrane homogenates (150-250 μg protein) were incubated in 250 ul of assay buffer HEPES 20 mM, pH 7.4) at 24-25° C. for 3 hour. Non-specific binding was determined in the presence of 1 μM atropine. The incubation was terminated by vacuum filtration over GF/B fiber filters (Wallac). The filters were then washed with ice-cold 50 mM Tris HCI buffer (pH 7.4). The filter mats were dried and bound radioactivity retained on filters was counted. The IC50 & Kd were estimated by using the non-linear curve-fitting program using G Pad Prism software.

isolated rat bladder = assay: Functional experiments using isolated rat bladder (carbachol concentration response curve); type: cell-based; details: isolated rat bladder strips, carbachol-induced contraction, antagonist added 20 min before second CRC; for Kb: read-out: Functional Assay pKB (converted)
Procedure: Animals were euthanized by overdose of urethane and whole bladder was isolated and removed rapidly and placed in cold Tyrode buffer with the following composition (mMol/L) sodium chloride 137; KCl 2.7, CaCl2 1.8, MgCl2 0.1; NaHCO3 11.9, NaH2PO4 0.4; Glucose 5.55 and continuously gassed with 95% O2 and 5% CO2
The bladder was cut into longitudinal strips (3 mm wide and 5-6 mm long) and mounted in 10 ml organ baths at 30° C., with one end connected to the base of the tissue holder and the other end connected to a polygraph through a force displacement transducer. Each tissue was maintained at a constant basal tension of 2 g and allowed to equilibrate for 1 hour during which the PSS was changed every 15 min. At the end of equilibration period, the stabilization of the tissue contractile response was assessed with 1 u mol/L of carbachol consecutively for 2-3 times. Subsequently, a cumulative concentration response curve to carbachol (10^−9 mol/L to 3×10^−5 mol/L) was obtained. After several washes, once the baseline was achieved, cumulative concentration response curve was obtained in the presence of NCE (NCE added 20 min. prior to the second CRC).
The contractile results were expressed as % of control E max ED50 values were calculated by fitting a non-linear regression curve (Graph Pad Prism). PKB values were calculated by the formula pKB=−log [(molar concentration of antagonist/(dose ratio-1))] where,
dose ratio=ED50 in the presence of antagonist/ED50 in the absence of antagonist.

M2 muscarinic receptor = target: T2, M2 muscarinic receptor (Rattus norvegicus, UniProt P10980); assay: Radioligand binding assay, [3H]-N-methyl scopolamine, rat heart membranes; details: [3H]NMS displacement, Ki by Cheng & Prusoff; for Ki: read-out: Receptor Binding Assay M2 pKi (converted)
T2 construct: Submandibular glands and heart were isolated and placed in ice cold homogenizing buffer; from tissue; host or cells: rat heart membrane homogenate
T2 sequence (P10980 1-466): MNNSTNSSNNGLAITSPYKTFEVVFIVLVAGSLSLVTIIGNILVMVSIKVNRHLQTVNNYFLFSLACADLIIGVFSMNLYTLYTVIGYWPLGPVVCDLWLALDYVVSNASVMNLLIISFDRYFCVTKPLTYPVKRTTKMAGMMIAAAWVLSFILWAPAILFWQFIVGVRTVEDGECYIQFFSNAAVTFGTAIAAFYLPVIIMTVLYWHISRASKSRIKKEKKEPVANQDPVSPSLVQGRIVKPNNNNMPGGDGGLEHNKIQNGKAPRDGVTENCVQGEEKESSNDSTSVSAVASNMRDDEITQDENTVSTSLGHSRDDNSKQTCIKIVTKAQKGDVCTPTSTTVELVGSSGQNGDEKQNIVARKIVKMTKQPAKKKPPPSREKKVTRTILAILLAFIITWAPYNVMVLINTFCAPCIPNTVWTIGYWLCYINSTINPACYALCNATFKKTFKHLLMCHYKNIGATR
Procedure: The affinity of test compounds for M2 and M3 muscarinic receptor subtypes was determined by [^3H]—N-methyl scopolamine binding studies using rat heart and submandibular gland, respectively as described by Moriya et al., (Life Sci, 1999, 64(25): 2351-2358).
as §1
as §2, with “software. The value of inhibition constant Ki was calculated from competitive binding studies by using Cheng & Prusoff equation (Biochem Pharmacol, 1973.22: 3099-3108), Ki=IC50/(1+L/Kd), where L is the concentration of [^3H]NMS used in the particular experiment. pKi=−log Ki Functional Experiments using Isolated Rat Bladder: Methodology: […]” for “software.”

T1 sequence (P08483 whole entry): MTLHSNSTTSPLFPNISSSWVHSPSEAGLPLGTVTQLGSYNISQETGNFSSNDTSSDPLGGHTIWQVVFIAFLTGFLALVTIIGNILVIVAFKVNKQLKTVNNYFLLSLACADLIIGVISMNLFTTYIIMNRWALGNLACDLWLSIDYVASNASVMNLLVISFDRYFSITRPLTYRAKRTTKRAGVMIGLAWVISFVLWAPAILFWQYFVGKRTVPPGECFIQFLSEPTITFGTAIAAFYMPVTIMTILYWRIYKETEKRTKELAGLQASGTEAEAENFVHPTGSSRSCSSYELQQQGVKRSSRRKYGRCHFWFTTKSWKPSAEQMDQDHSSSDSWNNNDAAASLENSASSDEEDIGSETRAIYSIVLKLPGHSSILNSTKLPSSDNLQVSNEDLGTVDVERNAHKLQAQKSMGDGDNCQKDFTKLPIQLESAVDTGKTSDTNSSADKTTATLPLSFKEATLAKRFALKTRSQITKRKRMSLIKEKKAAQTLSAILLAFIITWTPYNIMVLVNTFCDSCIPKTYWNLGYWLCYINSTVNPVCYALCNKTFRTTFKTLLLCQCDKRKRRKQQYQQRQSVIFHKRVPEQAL

“3-(2-methoxy-5-methylphenyl)-3-phenylpropanoic acid-4-[(3-azabicyclo[3.1.0]hex-6-yl]-ethoxy carbonylamino]butyl ester [Compound No. 5]” was tested, and the “Receptor Binding Assay M3 pKi” value (M3 muscarinic receptor) was less than 6, the “Functional Assay pKB” value (isolated rat bladder) was 5.15 and the “Receptor Binding Assay M2 pKi” value (M2 muscarinic receptor) was less than 6.

Work on `Cc1ccc(O)c([C@H](CCN(C(C)C)C(C)C)c2ccccc2)c1` [Tolterodine, reference compound] yielded a Kb (isolated rat bladder) of 0.00138 µM.

With `CCOC(=O)N(CCCCOC(=O)CC(c1ccccc1)c1cc(C)ccc1OC)C1C2CN(Cc3ccccc3)CC21` (centres unmarked) [Compound No. 12, 3-(2-methoxy-5-methylphenyl)-3-phenylpropionic acid-4-[(3-benzyl-3-azabicyclo[3.1.0]hex-6-yl)-ethoxycarbonylamino]butyl ester] the “Receptor Binding Assay M3 pKi” value (M3 muscarinic receptor) was less than 6, the “Functional Assay pKB” value (isolated rat bladder) was 6.72 and the “Receptor Binding Assay M2 pKi” value (M2 muscarinic receptor) was less than 6.

In the case of `Cc1ccc(O)c(C(CC(=O)OCC(=O)NC2C3CNCC32)c2ccccc2)c1` (centres unmarked) [Compound No. 8, 3-(2-hydroxy-5-methylphenyl)-3-phenylpropionic acid-(3-azabicyclo[3.1.0]hex-6-ylcarbamoyl)methyl ester], the Ki (M3 muscarinic receptor) was greater than 1 µM, the “Functional Assay pKB” value (isolated rat bladder) was “No blockade” and the Ki (M2 muscarinic receptor) was greater than 1 µM.

`Cc1ccc(O)c(C(CC(=O)OCCCCNOCCC2C3CNCC23)c2ccccc2)c1` (centres unmarked) [Compound No. 6, 3-(2-hydroxy-5-methylphenyl)-3-phenylpropionic acid 4-[(3-azabicyclo[3.1.0]hex-6-yl)ethoxyamino]butyl ester] was tested, and the “Receptor Binding Assay M3 pKi” value (M3 muscarinic receptor) was less than 6, the “Functional Assay pKB” value (isolated rat bladder) was 5.84 and the “Receptor Binding Assay M2 pKi” value (M2 muscarinic receptor) was less than 6.

`Cc1ccc(O)c(C(CC(=O)N[C@H]2[C@@H]3CN(Cc4ccccc4)C[C@@H]32)c2ccccc2)c1` (some centres unmarked) [Compound No. 11, N-(3-benzyl-3-azabicyclo[3.1.0]hex-6-yl)-3-(2-hydroxy-5-methylphenyl)-3-phenyl propionamide] was tested, and the Ki (M3 muscarinic receptor) was greater than 1 µM, the Kb (isolated rat bladder) was 6.76 µM and the Ki (M2 muscarinic receptor) was greater than 1 µM.

`Cc1ccc(OCc2ccccc2)c(C(CC(=O)OCC(=O)NC2C3CN(Cc4ccccc4)CC32)c2ccccc2)c1` (centres unmarked) [Compound No. 2, 3-(2-benzyloxy-5-methylphenyl)-3-phenyl propanoic acid-(3-benzyl-3-azabicyclo[3.1.0]-hex-6-ylcarbamoyl)-methyl ester] gave a Ki (M3 muscarinic receptor) greater than 1 µM, a Kb (isolated rat bladder) of 6.76 µM and a Ki (M2 muscarinic receptor) greater than 1 µM.

For `Cc1ccc(O)c(C(CC(=O)NC2C3CNCC32)c2ccccc2)c1` (centres unmarked) [Compound No. 3, N-(3-azabicyclo[3.1.0]hex-6-yl)-3-(2-hydroxy-5-methylphenyl)-3-phenyl-1-propanoic acid], the “Receptor Binding Assay M3 pKi” value (M3 muscarinic receptor) was less than 6, the “Functional Assay pKB” value (isolated rat bladder) was 5.95 and the “Receptor Binding Assay M2 pKi” value (M2 muscarinic receptor) was less than 6.

In the case of `COc1ccc(C)cc1C(CC(=O)OCC(=O)NC1C2CN(Cc3ccccc3)CC21)c1ccccc1` (centres unmarked) [Compound No. 1, 3-(2-Methoxy-5-methylphenyl)-3-phenyl propanoic acid-(3-benzyl-3-azabicyclo[3.1.0]hexane-6-yl-carbamoyl)methyl ester], the Ki (M3 muscarinic receptor) was greater than 1 µM, the Kb (isolated rat bladder) was 9.77 µM and the Ki (M2 muscarinic receptor) was greater than 1 µM.

For `COc1ccc(C)cc1C(CC(=O)OCC(=O)NC1C2CNCC21)c1ccccc1` (centres unmarked) [Compound No. 7, 3-(2-methoxy-5-methylphenyl)-3-phenylpropionic acid-(3-azabicyclo[3.1.0]hex-6-ylcarbamoyl)methyl ester], the Ki (M3 muscarinic receptor) was greater than 1 µM, the Kb (isolated rat bladder) was 2.51 µM and the Ki (M2 muscarinic receptor) was greater than 1 µM.

`COc1ccc(C)cc1C(CC(=O)NCC(=O)N[C@H]1[C@@H]2CN(Cc3ccccc3)C[C@@H]21)c1ccccc1` (some centres unmarked) [Compound No. 10, N-[(3-benzyl-3-azabicyclo[3.1.0]hex-6-ylcarbamoyl]-methyl]-3(-2-methoxy-5-methylphenyl)-3-phenyl propionamide] was tested, and the Ki (M3 muscarinic receptor) was greater than 1 µM, the Kb (isolated rat bladder) was 1.95 µM and the Ki (M2 muscarinic receptor) was greater than 1 µM.

`Cc1ccc(O)c(C(CC(=O)NCC(=O)NC2C3CN(Cc4ccccc4)CC32)c2ccccc2)c1` (centres unmarked) [Compound No. 9, N-[(3-benzyl-3-azabicyclo[3.1.0]hex-6-ylcarbamoyl)-methyl]-3-(2-hydroxy-5-methylphenyl)-3-phenyl-propionamide] was tested, and the Ki (M3 muscarinic receptor) was greater than 1 µM, the Kb (isolated rat bladder) was 1.91 µM and the Ki (M2 muscarinic receptor) was greater than 1 µM.

In the case of `COc1ccc(C)cc1C(CC(=O)NC1C2CNCC21)c1ccccc1` (centres unmarked) [Compound No. 4, N-(3-azabicyclo[3.1.0]hex-6-yl)-3-(2-methoxy-5-methylphenyl)-3-phenyl-1-propionamide], the “Receptor Binding Assay M3 pKi” value (M3 muscarinic receptor) was less than 6, the “Functional Assay pKB” value (isolated rat bladder) was 5.64 and the “Receptor Binding Assay M2 pKi” value (M2 muscarinic receptor) was less than 6.

With `Cc1ccc(O)c(C(CCNC2C3CN(Cc4ccccc4)CC32)c2ccccc2)c1` (single isomer, unassigned) [Compound No. 16, (R or S)—N-(3-benzy-1-3-azabicyclo[3.1.0]hex-6-yl]-[3-(2-hydroxy-5-methylphenyl)-3-phenylpropyl]amine] the “Functional Assay pKB” value (isolated rat bladder) was 7.25 ± 0.15.
